# Measurements as given in patent US20090291095A1, “NANOEMULSION ADJUVANTS” (The Regents of the University of Michigan, priority 2008, published 2009).
# System: virus
# Assay: Virus inactivation by BCTP component
# Details: concentrations equivalent to 11% BCTP
substance,measurement,value
TRITON-X100,ability to inactivate a virus,less ability to inactivate a virus
